The values that follow come from ChEMBL document CHEMBL3301361, “Experimental in vitro DMPK and physicochemical data on a set of publicly disclosed compounds”.

Data set [1] can be described thus: in vitro. Conditions: human.
The nature of data set [2]: physchem. Conditions: octan-1-ol/water.
Data set [3] can be described thus: physchem. Conditions: pH 7.4 buffer.
Data set [4] is described as follows: in vitro. Conditions: human, plasma, PPB.

Each structure is given as a SMILES string. In brackets after ≈: the same amount, converted by molar mass.

In general, microsomal CLint refers to the rate of metabolic loss divided by the concentration. High values mean rapid turnover, low ones slow turnover. One may read the logD as lipophilicity at a set pH, counting ionised and neutral species. One may read the thermodynamic solubility as the concentration in solution at equilibrium with solid. The molecule `Cc1ccc(C(=O)Nc2nccs2)cc1-n1cnc2ccc(N3CCN(C)CC3)cc2c1=O` came in with a microsomal CLint in the data set “in vitro [1]” (liver microsomes) of 7 µL/min/mg. In “physchem [2]” (pH 7.4, LogD7.4), this molecule gave a logD of 2.56. This molecule also registered a thermodynamic solubility in the data set “physchem [3]” of 91.2 µM (≈ 42 µg/mL).
For orientation: fraction unbound means free concentration divided by total concentration. The low end stands for extensive binding, the high end for weak binding. In the data set “in vitro [1]” (liver microsomes), `Nc1ccc2nc(SCC(=O)NC3CCN(Cc4ccc(Cl)c(Cl)c4)CC3)sc2c1` had a microsomal CLint of 59 µL/min/mg. Further, the fraction unbound at 5 h in “in vitro [4]” is 0.262.
`CC(C)Oc1cc(-n2cnc3ccc(N[C@@H](C)c4ccc(F)cn4)nc32)n[nH]1` yielded a microsomal CLint in the data set “in vitro [1]” (microsomes) of more than 150 µL/min/mg. For the same molecule, the fraction unbound at 5 h in the data set “in vitro [4]” was 0.0581.
Consider `Cc1ccc(S(=O)(=O)N(C)C(=O)N2CCC(N3CCC(Oc4ccc(Cl)c(Cl)c4)CC3)CC2)cc1`, for which, in “in vitro [1]” (liver microsomes), the microsomal CLint turned out to be 10 µL/min/mg. The fraction unbound at 5 h in “in vitro [4]” was 0.0171.
Taken in the same sequence, the figures for `O=C(NS(=O)(=O)c1ccccc1Cl)N1CCC(N2CCC(Oc3ccc(Cl)c(Cl)c3)CC2)CC1` were less than 3 µL/min/mg and 0.0307.
The molecule `COc1ccccc1S(=O)(=O)NC(=O)N1CCC(N2CCC(Oc3ccc(Cl)c(Cl)c3)CC2)CC1` yielded a microsomal CLint in the data set “in vitro [1]” (liver microsomes) of less than 3 µL/min/mg. In the data set “in vitro [4]”, this molecule showed a fraction unbound at 5 h of 0.0409.
In the data set “in vitro [1]” (liver microsomes), `Cc1ccc(S(=O)(=O)NC(=O)N2CCC(N3CCC(Oc4ccc(Cl)cc4C)CC3)CC2)cc1` registered a microsomal CLint of 6 µL/min/mg. This molecule had a logD in “physchem [2]” (pH 7.4, LogD7.4) of 1.79.
With `CS(=O)(=O)C1(c2cc(N3CCOCC3)nc(-c3cccc4[nH]ccc34)n2)CC1`, the microsomal CLint in the data set “in vitro [1]” (liver microsomes) stood at 11.2 µL/min/mg. Moreover, the solubility (thermodynamic) in the data set “physchem [3]” was found to be 4.6 µM (≈ 1.83 µg/mL).
With `Cc1ccc2[nH]ccc2c1-c1nc(N2CCOCC2)cc(C2(S(C)(=O)=O)CC2)n1`, the microsomal CLint in “in vitro [1]” (liver microsomes) is 5.75 µL/min/mg. The molecule also showed a logD in “physchem [2]” (pH 7.4, LogD7.4) of 1.7. Besides, the thermodynamic solubility in the data set “physchem [3]” was 95.5 µM (≈ 39.4 µg/mL).
`C[C@H](CO)Nc1nc(SCc2ccco2)nc2nc(N)sc12` registered a microsomal CLint in “in vitro [1]” (liver microsomes) of 5 µL/min/mg. The same molecule gave a fraction unbound at 5 h in the data set “in vitro [4]” of 0.117.
Take `OC[C@H]1C[C@@H](n2nnc3c(N[C@@H]4C[C@H]4c4ccccc4)nc(SCCC(F)(F)F)nc32)[C@H](O)[C@@H]1O`: the microsomal CLint in the data set “in vitro [1]” (microsomes) was less than 3 µL/min/mg. Further, the logD in “physchem [2]” (pH 7.4) stood at 4.06. Also, in “physchem [3]”, the solubility (thermodynamic) was 0.3 µM (≈ 0.153 µg/mL).
As to `CCCSc1nc(N[C@@H]2C[C@H]2c2ccccc2)c2nnn([C@@H]3C[C@H](OCCO)[C@@H](O)[C@H]3O)c2n1`, in “in vitro [1]” (liver microsomes), the microsomal CLint was less than 3 µL/min/mg. The molecule further displayed a logD in “physchem [2]” (pH 7.4, LogD7.4) of 3.87. In the data set “physchem [3]”, this molecule gave a solubility (thermodynamic) of 1 µM (≈ 0.487 µg/mL).
`CC(C)Cn1c(=O)n(C)c(=O)c2cn(Cc3cccc4ccccc34)cc21` displayed a microsomal CLint in “in vitro [1]” (microsomes) of 14 µL/min/mg. The molecule further yielded a logD in “physchem [2]” (pH 7.4, LogD7.4) of 4.41. The molecule further displayed a thermodynamic solubility in the data set “physchem [3]” of 1 µM (≈ 0.361 µg/mL).
Molecule `CCOC(=O)Nc1cc2c(c(N)n1)N=C(c1ccccc1)CCN2` returned a microsomal CLint in the data set “in vitro [1]” (microsomes) of 66.1 µL/min/mg. The molecule further showed a fraction unbound at 5 h in the data set “in vitro [4]” of 0.0544.
In “in vitro [1]” (liver microsomes), `CCN(C(=O)Cc1ccc(S(C)(=O)=O)cc1)C1CCN(CCC(c2ccccc2)c2ccc(NC(=O)C(C)(C)C)cc2)CC1` (centres undefined) came in with a microsomal CLint of less than 3 µL/min/mg. Moreover, the logD in “physchem [2]” (pH 7.4, LogD7.4) is 2.98. The molecule further came in with a thermodynamic solubility in “physchem [3]” of 100 µM (≈ 61.8 µg/mL).
Taken in the same sequence, the figures for `COc1cc2ncnc(Nc3ccc(OCc4ccccn4)c(C)c3)c2cc1OC` were 15 µL/min/mg, 3.6 and 0.9 µM (≈ 0.362 µg/mL).
In turn, `CCc1nc2c(N)nc3ccccc3c2n1CC(C)C` displayed an intrinsic clearance (microsomal CLint) in the data set “in vitro [1]” (liver microsomes) of less than 3 µL/min/mg. In “in vitro [4]”, this molecule showed a fraction unbound at 5 h of 0.117.
Consider `Fc1cnc(Nc2ccccc2)nc1Nc1ccccc1`, for which, in “in vitro [1]” (liver microsomes), the microsomal CLint was determined as 7 µL/min/mg. This molecule also returned a solubility (thermodynamic) in “physchem [3]” of 1.3 µM (≈ 0.364 µg/mL).
The molecule `CN(CCOc1ccccc1-c1cc(C(N)=O)c(NC(N)=O)s1)Cc1ccccc1` came in with a microsomal CLint in “in vitro [1]” (liver microsomes) of more than 150 µL/min/mg. The molecule further yielded a log distribution coefficient (logD) in “physchem [2]” (pH 7.4, LogD7.4) of 3.46. In addition, the solubility (thermodynamic) in the data set “physchem [3]” was determined as 1.5 µM (≈ 0.637 µg/mL).
As to `Cc1cc(Nc2cncc(N[C@@H](C)c3ccc(F)cn3)n2)[nH]n1`, in the data set “in vitro [1]” (liver microsomes), the microsomal CLint was found to be 34.7 µL/min/mg. The molecule further gave a fraction unbound at 5 h in “in vitro [4]” of 0.22.
`Cc1cc(Nc2cncc(N[C@@H](C)c3ncc(F)cn3)n2)n[nH]1` displayed a microsomal CLint in “in vitro [1]” (liver microsomes) of 15.8 µL/min/mg. In addition, the fraction unbound at 5 h in the data set “in vitro [4]” was 0.0854.
On to `O=C(NO)c1ccc(NS(=O)(=O)c2ccccc2)cc1`, for which the microsomal CLint in the data set “in vitro [1]” (liver microsomes) stood at 12 µL/min/mg. The molecule further had a logD in “physchem [2]” (pH 7.4, LogD7.4) of 0.75. Moreover, the thermodynamic solubility in the data set “physchem [3]” worked out at 316 µM (≈ 92.4 µg/mL).
Molecule `Cc1cc2c(C(=O)NC[C@H](C)c3ccccc3)c(O)c(O)cc2c(O)c1-c1c(C)cc2c(C(=O)NC[C@H](C)c3ccccc3)c(O)c(O)cc2c1O` [1,1',6,6',7,7'-HEXAHYDROXY-3,3'-DIMETHYL-N5-((R)-2-PHENYLPROPYL)-N5'-((R)-2-PHENYLPROPYL)-2,2'-BINAPHTHYL-5,5'-DICARBOXAMIDE (ATROPISOMERIC MIX)] had a microsomal CLint in the data set “in vitro [1]” (microsomes) of 34.7 µL/min/mg. In “physchem [2]” (pH 7.4, LogD7.4), the logD turned out to be 3.48.
Regarding `Nc1ccc(S(=O)(=O)c2ccc(N)cc2)cc1` [DAPSONE], in the data set “in vitro [1]” (microsomes), the microsomal CLint is less than 3 µL/min/mg. For the same molecule, in “physchem [2]” (pH 7.4, LogD7.4), the logD was found to be 0.88.
Regarding `Cc1cccc(Nc2ccccc2C(=O)O)c1C` [MEFENAMIC ACID], the microsomal CLint in the data set “in vitro [1]” (microsomes) worked out at 9 µL/min/mg. This molecule gave a logD in the data set “physchem [2]” (pH 7.4, LogD7.4) of 1.89.
In “in vitro [1]” (liver microsomes), `O=c1ncn2nc(Sc3ccc(F)cc3F)ccc2c1-c1c(Cl)cccc1Cl` [NEFLAMAPIMOD] yielded a microsomal CLint of 3 µL/min/mg. In the data set “physchem [2]” (pH 7.4, LogD7.4), this molecule registered a logD of 2.74. This molecule registered a solubility (thermodynamic) in the data set “physchem [3]” of 18.6 µM (≈ 8.11 µg/mL).
In “in vitro [1]” (liver microsomes), `c1ccc2c(c1)[nH]c1cnccc12` [NORHARMANE] had a microsomal CLint of 89 µL/min/mg. Further, the thermodynamic solubility in “physchem [3]” is 339 µM (≈ 57 µg/mL).
